Experimental data as given in patent US4182889A, “Process for preparing 10-methyl-2,9-dioxatricyclo[4,3,1,0^3,7 ] decanes” (Kali-Chemie Pharma GmbH, priority 1977, dated 1980).
Counter-ions that a name gives are not always drawn.

Legend:
[1] = anticonvulsive activity in the screening in white mice; assay type: in vivo; settings: oral dosages starting at 10 mg/kg
Description: (§1) The hydrochloride of formula II, test substance number 1973, and the hydrogentartrate of formula II, test substance number 2961, have been used for pharmacological testing.

toxicity in mice (LD50) = settings: mouse, in vivo
[2] = hexobarbital induced sleep prolongation in mice; assay type: in vivo; settings: white mice; oral dosages starting at 10 mg/kg; dose dependent
Experimental: For example, they effect a significant increase of the duration of hexobarbital induced sleep in mice upon oral administration of from 1 to 100 mg/kg body weight. Electroencephalographical tests in rats show an increase of the classical and the paradoxical sleep phases upon oral administration of from 1 to 100 mg/kg body weight.
as §1

For `COC1OC2OC3(CN4CCCCC4)C(O)CC(C2C)C13` (stereo not drawn) [test substance number 1973, 3-piperidinomethyl-4β-hydroxy-8-methoxy-10β-methyl-2,9-dioxatricyclo[4,3,1,0^3,7] decane hydrochloride], the anticonvulsive activity [1] was “do not exhibit any anticonvulsive activity”, the LD50 (toxicity in mice (LD50); ip) was 406 mg/kg and the LD50 (toxicity in mice (LD50); po) was 1140 mg/kg. The “increase of the duration of hexobarbital induced sleep” value [2] was “remarkable increase”.

With `COC1OC2OC3(CN4CCCCC4)C(O)CC(C2C)C13` (stereo not drawn) [test substance number 2961, 3-piperidinomethyl-4β-hydroxy-8-methoxy-10β-methyl-2,9-dioxatricyclo-[4,3,1,0^3,7] decane hydrogentartrate] the anticonvulsive activity [1] was “do not exhibit any anticonvulsive activity” and the “increase of the duration of hexobarbital induced sleep” value [2] was “remarkable increase”.
